“Also recorded” adds a separate entry of the source.
What was measured:
[1] = tested on: CaCo-2 (colorectal adenocarcinoma) cells; assay: SRB cell growth inhibition assay, CaCo-2; type: cell-based, human; details: Homo sapiens, Caco-2, 72 h, mean ± standard deviation
Experimental: (§1) The antitumor potential of the Sonogashira coupling products 2, tricyclic lactones 3 and 5, and tetracyclic lactones 7 was evaluated using the sulforhodamine B (SRB) assay against five human tumor cell lines: colorectal adenocarcinoma (CaCo-2), breast adenocarcinoma (MCF-7), gastric adenocarcinoma (AGS), cervical carcinoma (HeLa), and non-small cell lung cancer (NCI-H460). A primary pig liver cell culture (PLP2) was used to assess the toxicity of compounds.
(§2) The human tumor cell lines used were CaCo-2 (colorectal adenocarcinoma), MCF-7 (breast adenocarcinoma), AGS (gastric adenocarcinoma), HeLa (cervical carcinoma), NCI-H460 (lung carcinoma). Non-tumor cell lines were also tested: PLP2 (primary pig liver culture). All the cell lines were maintained in RPMI-1640 medium supplemented with 10% fetal bovine serum, glutamine (2 mM), penicillin (100 U/mL), and streptomycin ([…]), with the exception of PLP2, which was maintained in DMEM medium supplemented with fetal bovine serum (10%), glutamine and antibiotics. The culture flasks were incubated at 37 °C and with 5% CO2, under a humid atmosphere. The cells were used only when they had 70 to 80% confluence. A known mass of each compound was dissolved in DMSO/H2O (1:1, 1 mL), in order to obtain the stock solutions with a concentration of 1 mM. […] Each compound concentration (10 μL) was incubated with the cell suspension (190 μL) of the cell lines tested in 96-well microplates for 72 h. The microplates were incubated at 37 °C and with 5% CO2 in a humid atmosphere after checking the adherence of the cells. All cell lines were tested at a concentration of 10,000 cells/well. After the incubation period, the cells were treated: TCA (10% w/v; 100 μL) was previously cooled, and plates were incubated for 1 h at 4 °C, washed with water, and, after drying, a SRB solution (0.057%, m/v; 100 μL) was added and left to stand at room temperature for 30 min. To remove non-adhered SRB, plates were washed three times with a solution of acetic acid (1% v/v) and placed to dry. Finally, an adhered SRB was solubilized with Tris (10 mM, 200 μL) and the absorbance at a wavelength of 540 nm was read in the Biotek ELX800 microplate reader. The results obtained by the SRB assay were expressed regarding the concentration compounds that can inhibit cell growth by 50%—GI50. Doxorubicin was used as a positive control.

[2] = tested on: MCF-7 (breast adenocarcinoma) cells; assay: SRB cell growth inhibition assay, MCF-7; type: cell-based, human; details: Homo sapiens, MCF7, 72 h, mean ± standard deviation
Experimental: as §1, §2

[3] = tested on: AGS (gastric adenocarcinoma) cells; assay: SRB cell growth inhibition assay, AGS; type: cell-based; details: Homo sapiens, 72 h, mean ± standard deviation
Experimental: as §1, §2

[4] = tested on: HeLa (cervical carcinoma) cells; assay: SRB cell growth inhibition assay, HeLa; type: cell-based; details: Homo sapiens, 72 h, mean ± standard deviation
Experimental: as §1, §2

[5] = tested on: NCI-H460 (non-small cell lung cancer) cells; assay: SRB cell growth inhibition assay, NCI-H460; type: cell-based; details: Homo sapiens, 72 h, mean ± standard deviation
Experimental: as §1, §2

[6] = SRB assay, toxicity in non-tumor PLP2 cells; type: cell-based, pig; details: PLP2 primary pig liver cells (non-tumor); non-tumor primary pig liver cells, SRB assay, 72 h, mean ± standard deviation
Experimental: as §1, §2

[7] = tested on: T. brucei Lister 427 bloodstream forms; assay: Resazurin-based anti-T. brucei assay; type: cell-based, Trypanosoma brucei; details: 72 h; for T. brucei % of Activity ± ST.DEV (Single Dose 20 μM): single dose 20 μM, no activity = less than 20%
Experimental: (§3) The antiparasitic activity of compounds 2c–g, 3a, 5a and 7 was evaluated at a single concentration of 20 μM, against Trypanosoma brucei (T. brucei) and Leishmania infantum (L. infantum) promastigotes. The results are shown in Table 9 together with the cytotoxicity data (CC50) in THP-1–derived macrophages cells.
T. brucei Lister 427 bloodstream forms were grown in a humidified incubator at 37 °C, 5% CO2 in complete HMI-9 medium 1 supplemented with 10% heat-inactivated Fetal Bovine Serum (FBS) and 100 UI/mL penicillin/streptomycin. Parasites maintenance was performed in T25 ventilated flasks by subpassage at a concentration of 1 × 10^4/mL every 2 days on T25 ventilated flasks.
The efficacy of compounds against T. brucei bloodstream forms was evaluated using a modified resazurin-based assay previously described in the literature. Parasites were added to 100 µL of serial dilutions of compounds in supplemented complete medium at a cell density of 5 × 10^3/mL for. As a quality control, a dose–response curve for the antitrypanosomal pentamidine was included in all the assays. The final volume of the assay is 200 µL/well. Each condition was carried out in duplicate. Following 72 h incubation at the specific conditions for T. brucei, 20 µL of a 0.5 mM resazurin solution was added and plates were incubated for a further 4 h under the same conditions. Fluorescence was measured at 544 nm and 590 nm excitation and emission wavelength, respectively, using a Synergy 2 Multi-Mode Reader (Biotek, Winooski, VT, USA). Results were shown as % of parasite growth inhibition compared to control (untreated parasites) and represent the average of at least three independent experiments. The effect was evaluated by the determination of the IC50 value (concentration required to inhibit growth in 50%) and calculated by non-linear regression curves using GraphPad Prism version 8.1.1 for Windows (GraphPad Software, San Diego CA, USA).

[8] = tested on: L. infantum MHOM/MA/67/ITMAP-263 promastigotes; assay: Resazurin-based assay against L. infantum promastigotes; type: cell-based, Leishmania infantum; details: 72 h; for L. infantum % of Activity ± ST.DEV (Single Dose 20 μM): single dose 20 μM, no activity = less than 20%
Experimental: as §3
L. infantum MHOM/MA/67/ITMAP-263 promastigotes forms were grown at 27 °C, in complete RPMI-1640 medium supplemented with 10% heat-inactivated Fetal Bovine Serum (FBS), 2 mM L-glutamine, 100 UI/mL penicillin/streptomycin, 20 mM HEPES. Parasites maintenance was performed in T25 non-ventilated flasks by subpassage at a concentration of 1 × 10^6/mL every 5 days on T25 non-ventilated flasks.
The compounds’ efficacy against L. infantum promastigotes was evaluated using a resazurin-based assay. Parasites were added to 100 µL of serial dilutions of compounds in supplemented complete medium at a cell density of 5 × 10^5/mL. As a quality control, a dose–response curve to the antileishmanial drug miltefosine was included in all the assays. The final volume of the assay was 200 µL/well. Each condition was carried out in duplicate. Following 72 h of incubation at the specific conditions for L. infantum, 20 µL of a 0.5 mM resazurin solution was added, and the plates were incubated for a further 4 h under the same conditions. The methodology to obtain the results was the same described in Section 3.2.2. for T. brucei.

[9] = MTT cytotoxicity in THP-1-derived macrophages; type: cell-based, human; details: human, THP-1-derived macrophages (PMA-differentiated); MTT, 72 h, tested 100 to 12.5 μM; read-out: CC50 Interval in THP-1-Derived Macrophages
Experimental: (§4) Human leukemia cell line, THP-1 (ATCC® TIB-202™, Manassas, VA, USA) was cultured in RPMI-1640 medium supplemented with 10% heat-inactivated Fetal Bovine Serum (FBS), 2 mM L-glutamine, 100 UI/mL penicillin/streptomycin, 20 mM HEPES. The cell line was maintained in a humidified incubator at 37 °C and 5% CO2 by subculture every three days in 20 mL of media at a concentration of 1 × 10^5/mL in a T75 flask. All cell culture reagents were purchased from Lonza-Bioscience (Morrisville, NC, USA).
(§5) The cytotoxicity effect of compounds on THP-1-derived macrophages was assessed by the colorimetric MTT assay (3-(4,5-dimethylthiazol-2-yl)-2,5-diphenyl tetrazolium bromide). Briefly, THP-1 cells were suspended in RPMI complete medium at a density of 1 × 10^6 cells/mL and 100 μL/well were seeded in a 96-well plate and were differentiated into macrophages by addition of 40 ng/mL of phorbol-myristate 13-acetate (PMA, Sigma, Saint Louis, MI, USA) for 24 h followed by replacement with fresh medium for more 24 h. Subsequently, cells were incubated with 100 μL of compounds ranging from 100 to 12.5 μM after dilution in the RPMI complete medium. Each condition was carried out in quadruplicate. After 72 h of incubation at 37 °C 5% CO2, the medium was removed and 200 μL of 0.5 mg/mL MTT solution diluted in RPMI was added. Plates were incubated for an additional 4 h. Then 160 μL of media was removed and the same volume of 2-propanol was added. Absorbance was read at 570 nm using a Synergy 2 Multi-Mode Reader (Biotek, Winooski, VT, USA). Cytotoxicity was evaluated by the determination of the CC50 value (drug concentration that reduced the percentage of viable cells in 50%) and calculated by non-linear regression analysis using GraphPad Prism version 8.1.1 for Windows (GraphPad Software, San Diego, CA, USA). The results represent the average of at least three independent experiments. For each compound, the Selectivity Index (SI) was calculated as the ratio between cytotoxicity in THP-1 (CC50, 72 h) and activity against parasites (IC50, 72 h).

[10] = tested on: THP-1-derived macrophages; assay: MTT cytotoxicity in THP-1-derived macrophages; type: cell-based, human
Experimental: as §4, §5

SMILES	GI50 [1] [µM]	GI50 [2] [µM]	GI50 [3] [µM]	GI50 [4] [µM]	GI50 [5] [µM]	GI50 at 72 h [6] [µM]	T. brucei % of Activity ± ST.DEV (Single Dose 20 μM) [7]	L. infantum % of Activity ± ST.DEV (Single Dose 20 μM) [8]	CC50 at 72 h [9] [µM]	IC50 ([8]; Leishmania infantum, dose-response) [µM]	IC50 ([7]; dose-response) [µM]	T. brucei IC50 ([7]; dose-response)	IC50 ([7]; Trypanosoma brucei, dose-response) [µM]	cytotoxicity in THP-1-derived macrophages (in words) [10]
COC(=O)c1sc2nccnc2c1C#Cc1ccc(F)cc1 [Compound 2c, Methyl 7-[(4-fluorophenyl)ethynyl]-thieno[2,3-b]pyrazine-6-carboxylate]	52.1 ± 0.89	51.8 ± 1.07	70.7 ± 4.72	48.3 ± 1.66	67.2 ± 3.05	> 125	no activity *	no activity *	> 100	–	–	–	–	–
O=c1oc(-c2ccc(C(F)(F)F)cc2)c(-c2ccc(C(F)(F)F)cc2)c2c1sc1nc3ccccc3cc12 [Compound 7e, 3,4-Bis(4-(trifluoromethyl)phenyl)-1H-pyrano[4’,3’:4,5]thieno[2,3-b]quinolin-1-one]	–	–	–	–	–	–	no activity *	no activity *	25 to 50	–	–	–	–	–
COc1ccc(-c2oc(=O)c3sc4nc5ccccc5cc4c3c2-c2ccc(OC)cc2)cc1 [Compound 7d, 3,4-Bis(4-methoxyphenyl)-1H-pyrano[4′,3′:4,5]thieno[2,3-b]quinolin-1-one]	90 ± 3.29	91.2 ± 8.71	88.6 ± 5.08	75.2 ± 6.72	97.8 ± 6.14	> 125	no activity *	no activity *	< 12.5	–	–	–	–	–
COC(=O)c1sc2nccnc2c1C#Cc1ccc(C)cc1 [Compound 2e, Methyl 7-(p-tolylethynyl)thieno[2,3-b]pyrazine-6-carboxylate]	93 ± 7.23	95.8 ± 8.08	89.2 ± 5.33	76.9 ± 6.55	102 ± 8.13	> 125	–	no activity *	> 100	–	–	–	–	–
CCCCc1oc(=O)c2sc3nc4ccccc4cc3c2c1CCCC [Compound 7b, 3,4-Dibutyl-1H-pyrano[4′,3′:4,5]thieno[2,3-b]quinolin-1-one]	91.1 ± 2.46	101 ± 7.33	99.8 ± 4.94	82.8 ± 8.02	109 ± 9.16	> 125	no activity *	–	12.5 to 50	19	–	–	–	–
COC(=O)c1sc2nccnc2c1C#Cc1ccc(OC)cc1 [Compound 2d, Methyl 7-[(4-methoxyphenyl)ethynyl]thieno[2,3-b]pyrazine-6-carboxylate]	79.5 ± 3.58	67.9 ± 2.47	59.3 ± 1.97	62.3 ± 2.98	82.5 ± 5.35	> 125	no activity *	no activity *	> 100	–	–	–	–	–
O=c1oc(-c2ccccc2)c(-c2ccccc2)c2c1sc1nc3ccccc3cc12 [Compound 7a, 3,4-Diphenyl-1H-pyrano[4′,3′:4,5]thieno[2,3-b]quinolin-1-one]	75 ± 4.49	97.9 ± 6.31	93.5 ± 5.37	78.9 ± 6.06	93.9 ± 3.18	> 125	–	no activity *	< 12.5	–	–	–	–	–
O=c1oc(-c2ccccc2)c(Cl)c2c1sc1nccnc12 [Compound 5a, 9-Chloro-8-phenyl-6H-pyrano[4′,3′:4,5]thieno[2,3-b]pyrazin-6-one]	41.7 ± 1.02	52.6 ± 3.18	36.3 ± 1.47	35.8 ± 2.08	51.5 ± 4.18	66.8 ± 3.58	–	–	50 to 100	–	10.8	low μM range	< 11	some level of toxicity; also recorded: some degree of cytotoxicity
COC(=O)c1sc2nccnc2c1C#Cc1ccsc1 [Compound 2g, Methyl 7-(thiophen-3-ylethynyl)thieno[2,3-b]pyrazine-6-carboxylate]	30.7 ± 2.35	60 ± 3.19	46.1 ± 1.77	36.4 ± 2.85	62.1 ± 3.05	90.5 ± 6.47	no activity *	no activity *	> 100	–	–	–	–	–
